Values joined by “and” are separate entries in the source; they are usually repeats but may differ in a detail not shown here. Equal values may be shown once. Read-outs that look alike come from different tables or passages of the source.
How the values were obtained:
[1] = cited from earlier work
[2] = PFAA concentration in serum of occupational workers (HPLC-ESI/MS/MS); type: in vivo, human; set-up: Serum PFAA level: unit: ng/mL
Protocol: (§1) The selected fluorochemical plant (Henxin Chemical Plant) in this study is one of the largest producers of PFOS-related chemicals in China and is located in Yingcheng, Hubei province. Perfluoroalkyl sulfonic acids (PFSAs) and perfluorotertiary amines are synthesized through an electro-chemical fluorination (ECF) process. We collected paired serum and urine samples from the occupational workers in the plant for five consecutive years, and the sampling activities were carried out in Nov. 2008, Nov. 2009, Nov. 2010, Dec. 2011, and Dec 2012, respectively. The Medical Research Ethics Committee, School of Medicine, Jianghan University, approved the ethics of this study, and all methods were performed in accordance with the relevant guidelines and regulations, moreover, all volunteers gave written informed consent. Demographic information of the donors, including gender, age, length of service, and work assignment, was collected with a questionnaire (Table S1). The sampled population included a total of 302 occupational workers, of which there were 89 female and 213 male participants. In total, 302 serum and 274 urine samples were collected.
(§2) The participants were told not to eat breakfast before the sampling, and morning urine samples and blood samples were collected. Serum was separated from the blood by centrifugation at 1100 × g at 4 °C for 10 min and then placed on ice. Serum samples were then transferred to our laboratory on the same day and stored in polypropylene containers at −20 °C until analysis.
(§3) All pre-treatment methods and instrument analysis of PFAAs in serum and urine samples are based on previous studies with minor modifications (see Supplementary Information)[3][31]. Based on the PFAA profiles in environmental matrices around the same plant in our previous study, only 3 main PFAAs, PFHxS, PFOA, and PFOS, were analyzed in the obtained serum and urine samples. Instrumental analysis of the PFAAs was performed by a HPLC-ESI/MS/MS system (HPLC: Waters 2695, MS: Waters Quattro Premier XE). The limits of detection (LODs) of PFHxS, PFOA, and PFOS were 0.020, 0.063, and 0.018 ng mL^−1 for serum samples and 0.008, 0.025, and 0.007 ng mL^−1 for urine samples, respectively. A procedural blank was performed for every batch of seven samples, and all of the blank levels were below the LODs. […] Details of quality assurance and quality control of the chemical analysis can be found in the Supplementary Information.

[3] = set-up: method as in PMID 23980546, PMID 12499116, PMID 20236705; details: set value; cited from earlier work
[4] = Half-life estimated by annual decline rates of serum PFAAs (first-order model); type: in vivo, human
Description: Olsen et al.[21] found linear relationship between the logarithm of serum PFAAs concentration and time, and a first order model was adopted to estimate the half-lives of PFAAs. The elimination of PFAAs in humans was also described with the following equation: […]
If we set C(t) as 1/2C0, then the half-life
where k is the elimination rate constant. We calculated k using two approaches in the present study. In the first approach, k is defined as Cltotal/Vd, where Vd stands for the volume of distribution of PFAAs in the human body. Cltotal represents the total daily PFAAs clearance in the human body; for men and women older than 50, it refers to renal clearance, while for young women, it is defined as the sum of menstrual clearance and renal clearance. To keep consistency with other studies, Vd of PFOS and PFHxS were set at 230 mL kg^−1, and Vd of PFOA was set at 170 mL kg^−1 in this study. In the second approach, k is defined as the average annual decline rates of PFAAs in workers who participated in this study.
Serum PFAAs of workers were sequentially measured for 5 years, and they fluctuated during our sampling period, although different serum PFAAs decreased in certain years. […] For PFOA, 31 out of 42 workers decreased in the period of 2011–2012, and the serum PFOA concentration dropped by 41%. […] We assumed that there were no new inputs of PFAAs in these workers, and thus k in Eq (2) was set as the average annual serum PFAA decline rate. The half-lives of PFHxS, PFOA, and PFOS estimated by Eq (2) were 3.6, 1.7, and 1.9 years.

[5] = PFAA concentration in morning urine of occupational workers (HPLC-ESI/MS/MS); type: in vivo, human; details: for Urine PFOA concentration: individual workers
Protocol: as §1, §2, §3
Urine samples were pretreated by solid phase extraction. Briefly, 1 mL of urine spiked with 5 ng of internal standard was added to a 15 - mL PP tube and diluted with 13 mL water. The solid phase extraction procedure was then performed following the previously described serum extraction procedure.

[6] = Fabric finishing agent department, N 8

SMILES: O=C(O)C(F)(F)C(F)(F)C(F)(F)C(F)(F)C(F)(F)C(F)(F)C(F)(F)F [PFOA, perfluorooctanoic acid]
- Serum concentration, geometric mean ([1]; occupational workers of Wang et al.): 1272 ng/mL
- Serum concentration, geometric mean ([1]; workers of the 3 M Company): 1130 ng/mL
- Serum concentration, mean ([2]; All workers, N 302): 1052 ng/mL
- Serum concentration, median ([2]; All workers, N 302): 427 ng/mL
- Serum concentration, range ([2]; All workers, N 302): 2.5 to 32000 ng/mL
- Serum PFAA level ([2]; Electrolytic Department, length of service < 1 year): 118
- Serum concentration, mean ([2]; Electrolytic department, N 74): 2337 ng/mL
- Serum concentration, median ([2]; Electrolytic department, N 74): 1126 ng/mL
- Serum concentration, range ([2]; Electrolytic department, N 74): 55.9 to 32000 ng/mL
- Serum concentration, mean [2, 6]: 606 ng/mL
- Serum concentration, median [2, 6]: 114 ng/mL
- Serum concentration, range [2, 6]: 51 to 2600 ng/mL
- Serum PFAA level ([2]; Management Office, length of service 1-3 years): 48.3
- Serum PFAA level ([2]; Management Office, length of service < 1 year): 9.9
- Serum PFAA level ([2]; Management Office, length of service >3 years): 167
- Serum concentration, mean ([2]; Management office, N 92): 362 ng/mL
- Serum concentration, median ([2]; Management office, N 92): 101 ng/mL
- Serum concentration, range ([2]; Management office, N 92): 2.5 to 4380 ng/mL
- Serum PFAA level ([2]; Research Building, length of service 1-3 years): 124
- Serum PFAA level ([2]; Research Building, length of service >3 years): 276
- Serum concentration, mean ([2]; Research building, N 27): 404 ng/mL
- Serum concentration, median ([2]; Research building, N 27): 142 ng/mL
- Serum concentration, range ([2]; Research building, N 27): 4.7 to 2920 ng/mL
- Serum PFAA level ([2]; Sulfonation Department, length of service 1-3 years): 371
- Serum PFAA level ([2]; Sulfonation Department, length of service < 1 year): 185
- Serum PFAA level ([2]; Sulfonation Department, length of service >3 years): 896
- Serum concentration, mean ([2]; Sulfonation department, N 101): 929 ng/mL
- Serum concentration, median ([2]; Sulfonation department, N 101): 603 ng/mL
- Serum concentration, range ([2]; Sulfonation department, N 101): 4.9 to 4630 ng/mL
- Serum concentration, geometric mean ([2]; all occupational workers): 334 ng/mL
- Average serum concentration (Average ± SD) ([2]; female workers, n 89): 659 ± 743 ng/mL
- concentration at 2008 calendar year ([2]; human, serum, other: occupational exposure, 46 workers sampled at least three times, 2008, read-out: Serum concentration, GM): 368 ng/mL
- concentration at 2009 calendar year ([2]; human, serum, other: occupational exposure, 46 workers sampled at least three times, 2009, read-out: Serum concentration, GM): 252 ng/mL
- concentration at 2010 calendar year ([2]; human, serum, other: occupational exposure, 46 workers sampled at least three times, 2010, read-out: Serum concentration, GM): 622 ng/mL
- concentration at 2011 calendar year ([2]; human, serum, other: occupational exposure, 46 workers sampled at least three times, 2011, read-out: Serum concentration, GM): 692 ng/mL
- concentration at 2012 calendar year ([2]; human, serum, other: occupational exposure, 46 workers sampled at least three times, 2012, read-out: Serum concentration, GM): 416 ng/mL
- Average serum concentration (Average ± SD) ([2]; male workers, n 213): 1,215 ± 2,936 ng mL^−1
- Serum concentration, GM ([2]; workers with service length 1–3 years): 222 ng/mL
- Serum concentration, GM ([2]; workers with service length less than 1 year): 68 ng/mL
- Serum concentration, GM ([2]; workers with service length more than 3 years): 527 ng/mL
- Vd (volume of distribution in the human body) [3]: 170 mL/kg
- Drop of serum concentration ([4]; 2011–2012, 42 workers): 41%
- half-life ([4]; human, k = average annual serum decline rate, no new inputs assumed, two time points): 621 days
- Urine concentration, mean ([5]; All workers, N 274): 4.3 ng/mL
- Urine concentration, median ([5]; All workers, N 274): 1.9 ng/mL
- Urine concentration, mean ([5]; Electrolytic department, N 67): 6.7 ng/mL
- Urine concentration, median ([5]; Electrolytic department, N 67): 3.5 ng/mL
- Urine concentration, mean [5, 6]: 5.1 ng/mL
- Urine concentration, median [5, 6]: 1.5 ng/mL
- Urine concentration, range [5, 6]: 1.2 to 22.2 ng/mL
- Urine concentration, mean ([5]; Management office, N 76): 1.5 ng/mL
- Urine concentration, median ([5]; Management office, N 76): 0.86 ng/mL
- Urine concentration, mean ([5]; Research building, N 25): 1.8 ng/mL
- Urine concentration, median ([5]; Research building, N 25): 0.92 ng/mL
- Urine concentration, mean ([5]; Sulfonation department, N 98): 4.8 ng/mL
- Urine concentration, median ([5]; Sulfonation department, N 98): 2.7 ng/mL
- Urine PFOA concentration ([5]; sampling year 2008): 5.18 ng/mL and 0.0901 ng/mL and 0.0937 ng/mL and 0.178 ng/mL and 2.21 ng/mL and 7.6 ng/mL and 0.0489 ng/mL and 3.75 ng/mL and 2.54 ng/mL and 2.88 ng/mL and 0.67 ng/mL and 2.31 ng/mL and 1.03 ng/mL and 1.26 ng/mL and 0.0447 ng/mL and 0.688 ng/mL and 2.24 ng/mL and 2 ng/mL and 1.47 ng/mL and 0.668 ng/mL and 0.709 ng/mL and 0.448 ng/mL and 4.18 ng/mL and 5 ng/mL and 8.09 ng/mL and 7.15 ng/mL and 6.68 ng/mL
- Urine PFOA concentration ([5]; sampling year 2009): 3.45 ng/mL and 8.82 ng/mL and 14.8 ng/mL and 1.48 ng/mL and 15.8 ng/mL and 19.6 ng/mL and 6.9 ng/mL and 5.24 ng/mL and 1.14 ng/mL and 1.2 ng/mL and 1.69 ng/mL and 0.889 ng/mL and 4 ng/mL and 0.515 ng/mL and 2.24 ng/mL and 5.25 ng/mL and 1.05 ng/mL and 0.776 ng/mL and 0.537 ng/mL and 12.4 ng/mL and 4.34 ng/mL and 1.12 ng/mL and 15.3 ng/mL and 19.1 ng/mL and 10 ng/mL and 4.81 ng/mL
